Source: PMC6413231, “o-Vanillin Derived Schiff Bases and Their Organotin(IV) Compounds: Synthesis, Structural Characterisation, In-Silico Studies and Cytotoxicity” (International Journal of Molecular Sciences, 2019)

What was measured:
[1] = test system: EJ-28 (muscle invasive bladder) cancer cells; assay: MTT cytotoxicity assay, EJ-28; type: cell-based, human; conditions: EJ-28 cells, 72 h, ± standard error, read-out: Growth Inhibition Concentration, GI50
Experimental: (§1) The Schiff bases and their organotin(IV) compounds were screened for in vitro cytotoxicity against a panel of 12 cancer cell lines: EJ-28 (muscle invasive bladder), RT-112 (minimum-invasive bladder), HT29 (colon), U87 and SJ-G2 (glioblastoma), MCF-7 (breast), A2780 (ovarian), H460 (lung), A431 (skin), DU145 (prostate), BE2-C (neuroblastoma), MIA (pancreatic) and one normal breast cell line (MCF-10A) using the MTT metabolic assay (Figure 6). After 72 h of incubation, a dose-dependent […] effect towards the cancer cell lines was measured at very low micromolar (µM) concentrations of the compounds. The growth inhibition concentration of the Schiff bases and their organotin(IV) compounds required to inhibit 50% cell proliferation relative to the cells that were treated with DMSO (control) are given in Table 2. The stability of these compounds was assessed in DMSO as well as in a mixture of DMSO-H2O. The absorbance obtained from UV-vis spectroscopy analysis was monitored for 72 h, and an unchanged pattern in the spectra was indicative that the compounds were stable in both the solvent systems tested.
(§2) The inhibitory effect of the synthesised compounds on the growth of bladder (EJ-28 and RT-112) cancer cells was evaluated by MTT assay. […] RT-112 and EJ-28, human bladder cancer cell lines used in this study (ATCC, Manassas, VA, USA) were cultured in RPMI-1640 (High glucose) medium supplemented with 10% fetal bovine serum containing 1% penicillin. The cells were cultured at 37 °C in a humidified atmosphere of 5% CO2 in air. Cells were seeded in 96-well plates at 6000 cells per well for 24 h, then they were treated with different concentrations of compounds for 72 h. The medium was subsequently removed and the wells were washed with 200 µL of phosphate buffer saline. Aliquots of 20 µL of 3-(4,5-dimethylthiazol-2-yl)-2,5-diphenyltetrazolium bromide (MTT) was added to each well and incubated for 4 h at 37 °C. Aliquots of 200 µL of media was then removed from each well and 200 µL of DMSO was added. Optical density (OD) was measured using an ELISA plate reader at 570 nm. Control wells (100% viability), containing media and DMSO, were included in all the experiments. All data points represented an average of triplicate assays. Cytotoxicity was expressed as CD50, i.e., the concentration that reduced the absorbance of treated cells by 50% with reference to the control (untreated cells).

[2] = test system: RT-112 (minimum-invasive bladder) cancer cells; assay: MTT cytotoxicity assay, RT-112; type: cell-based, human; conditions: RT-112 cells, 72 h, ± standard error, read-out: Growth Inhibition Concentration, GI50
Experimental: as §1, §2

[3] = test system: HT29 (colon) cancer cells; assay: MTT growth inhibition assay, HT29; type: cell-based; conditions: 72 h, ± standard error, read-out: Growth Inhibition Concentration, GI50
Experimental: as §1
(§3) For HT29 (colon), U87 and SJ-G2 (glioblastoma), MCF-7 (breast), A2780 (ovarian), H460 (lung), A431 (skin), Du145 (prostate), BE2-C (neuroblastoma), MIA (pancreas) cell lines and one normal breast cell line, MCF-10A (normal breast), the MTT assays were performed using the following method:
(§4) Stock solutions were prepared as follows and stored at −20 °C: Trial compounds were stored as 10 mM solutions in DMSO. All cell lines were cultured in a humidified atmosphere 5% CO2 at 37 °C. The cancer cell lines were maintained in Dulbecco’s modified Eagle’s medium (DMEM) (Trace Biosciences) supplemented with 10% foetal bovine serum, 10 mM sodium bicarbonate, penicillin (100 IU/mL), streptomycin (100 μg/mL) and glutamine (4 mM). The normal cell line, MCF-10A was cultured in DMEM:F12 (1:1) cell culture media, 5% heat inactivated horse serum, supplemented with penicillin (50 IU/mL), streptomycin (50 μg/mL), 20mM Hepes, L-glutamine (2 mM), epidermal growth factor (20 ng/mL), hydrocortisone (500 ng/mL), cholera toxin (100 ng/mL) and insulin (10 μg/mL).
(§5) Cells in logarithmic growth were transferred to 96-well plates. Cytotoxicity was determined by plating cells in duplicate in 100 μL medium at a density of 2500–4000 cells/well. On day 0 (24 h after plating), when the cells were in logarithmic growth, 100 μL medium, with or without the test agent, was added to each well. After 72 h drug exposure, growth inhibitory effects were evaluated using the MTT (3-[4,5-dimethylthiazol-2-yl]-2,5-diphenyltetrazolium bromide) assay and absorbance read at 540 nm. Percentage growth inhibition was determined at a fixed drug concentration of 25 μM. A value of 100% was indicative of complete cell growth inhibition. Those analogues showing appreciable percentage growth inhibition underwent further dose-response analysis allowing for the calculation of a GI50 value. This value is the drug concentration at which cell growth is 50% inhibited based on the difference between the optical density values on day 0 and those at the end of drug exposure.

[4] = test system: U87 (glioblastoma) cancer cells; assay: MTT growth inhibition assay, U87; type: cell-based; conditions: 72 h, ± standard error, read-out: Growth Inhibition Concentration, GI50
Experimental: as §1, §3, §4, §5

[5] = test system: MCF-7 (breast) cancer cells; assay: MTT growth inhibition assay, MCF-7; type: cell-based; conditions: MCF-7 cells, 72 h, ± standard error, read-out: Growth Inhibition Concentration, GI50
Experimental: as §1, §3, §4, §5

[6] = test system: A2780 (ovarian) cancer cells; assay: MTT growth inhibition assay, A2780; type: cell-based; conditions: 72 h, ± standard error, read-out: Growth Inhibition Concentration, GI50
Experimental: as §1, §3, §4, §5

[7] = test system: H460 (lung) cancer cells; assay: MTT growth inhibition assay, H460; type: cell-based; conditions: 72 h, ± standard error, read-out: Growth Inhibition Concentration, GI50
Experimental: as §1, §3, §4, §5

[8] = test system: A431 (skin) cancer cells; assay: MTT growth inhibition assay, A431; type: cell-based; conditions: 72 h, ± standard error, read-out: Growth Inhibition Concentration, GI50
Experimental: as §1, §3, §4, §5

[9] = test system: Du145 (prostate) cancer cells; assay: MTT growth inhibition assay, Du145; type: cell-based; conditions: 72 h, ± standard error, read-out: Growth Inhibition Concentration, GI50
Experimental: as §1, §3, §4, §5

[10] = test system: BE2-C (neuroblastoma) cancer cells; assay: MTT growth inhibition assay, BE2-C; type: cell-based; conditions: 72 h, ± standard error, read-out: Growth Inhibition Concentration, GI50
Experimental: as §1, §3, §4, §5

[11] = test system: SJ-G2 (glioblastoma) cancer cells; assay: MTT growth inhibition assay, SJ-G2; type: cell-based; conditions: for GI50: MTT, 72 h, ± standard error, read-out: Growth Inhibition Concentration, GI50
Experimental: as §1, §3, §4, §5

[12] = test system: MIA (pancreatic) cancer cells; assay: MTT growth inhibition assay, MIA; type: cell-based; conditions: 72 h, ± standard error, read-out: Growth Inhibition Concentration, GI50
Experimental: as §1, §3, §4, §5

[13] = test system: MCF-10A (normal breast) cell line; assay: MTT growth inhibition assay, MCF10A; type: cell-based; conditions: MCF10A normal breast cells, 72 h, ± standard error, read-out: Growth Inhibition Concentration, GI50
Experimental: as §1, §3, §4, §5

[14] = test system: calf thymus DNA (CT-DNA); assay: CT-DNA binding by UV-vis absorption titration; conditions: for Bathochromism Shift (nm) / Hypochromism, (%): CT-DNA, UV-vis absorption titration; for Gibbs Free Energy: interaction with CT-DNA
Experimental: Both theoretical and experimental DNA binding of the synthesised organotin(IV) compounds with DNA were investigated. The interaction of organotin(IV) compounds with CT-DNA was elucidated via UV-visible absorption spectroscopy. […] The absorption spectra of diphenyltin(IV) compounds at a constant concentration (50 μM) in the absence and the presence of different concentrations of CT-DNA are shown in Figure 8. Upon increasing concentrations of CT-DNA, hypochromism and bathochromism occurred at around 350–377 nm indicating strong π–π stacking interactions between the aromatic chromophore of the organotin(IV) compounds and the nitrogeneous pair of the DNA strand [11, 70]. The same hypochromism and bathochromism shifts were also observed in other transitions. In order to compare the binding strength of the organotin(IV) compounds to CT-DNA, the intrinsic binding constants (Kb) were quantitatively determined and are presented in Table 3.
DNA binding experiments were carried out at 25°C. DNA concentration per nucleotide was determined using the molar absorption coefficient (6600 M^−1 cm^−1) at 260 nm. […] Absorption titration experiments were performed maintaining the concentration of the organotin(IV) compounds solutions at 50 µM and gradually increasing the concentration of CT-DNA. The organotin(IV) compounds were dissolved in DMSO and diluted with Tris-HCI buffer at room temperature (25 °C). The solutions were scanned over 230–600 nm. Absorbance values were recorded 10 min after the addition of DNA solution. The binding constant, Kb was determined using the equation: [DNA]/(εa−εf)=[DNA]/(εb−εf)+1/Kb(εb−εf) where [DNA] is the concentration of DNA in base pairs, εa corresponds to the apparent molar extinction coefficient Aabs/[M], εf corresponds to the extinction coefficient for the free organotin [M] and εb corresponds to the extinction coefficient for the fully bound organotin compound.

| Structure (SMILES) | GI50 [1] [nM] | GI50 [2] [nM] | GI50 [3] [nM] | GI50 [4] [nM] | GI50 [5] [nM] | GI50 [6] [nM] | GI50 [7] [nM] | GI50 [8] [nM] | GI50 [9] [nM] | GI50 [10] [nM] | GI50 [11] [nM] | GI50 [12] [nM] | GI50 [13] [nM] | Bathochromism Shift (nm) [14] [nm] | Hypochromism, (%) [14] [%] | Gibbs Free Energy [14] [kcal/mol] | greater activity than respective Schiff base ([11]; GI50 comparison) [fold] |
| --- | --- | --- | --- | --- | --- | --- | --- | --- | --- | --- | --- | --- | --- | --- | --- | --- | --- |
| COc1cccc2c1[O][Sn]([CH3])([CH3])[S]C(SCc1ccccc1C)=NN=C2 [Me2Sn(S2MoVa), Dimethyltin(IV) [S-2-Methybenzyl-β-N-(2-hydroxy-3-methoxybenzylmethylene) dithiocarbazate]] | 2500 ± 780 | 2400 ± 770 | 2700 ± 100 | 3600 ± 230 | 3100 ± 120 | 3100 ± 60 | 3300 ± 130 | 3000 ± 30 | 3900 ± 30 | 2900 ± 30 | 2500 ± 300 | 3900 ± 70 | 3000 ± 90 | 10 | 37.97 | -7.55 |  |
| COc1cccc2c1[O][Sn]([CH3])([CH3])[S]C(SCc1ccc(C)cc1)=NN=C2 [Me2Sn(S4MoVa), Dimethyltin(IV) [S-4-Methybenzyl-β-N-(2-hydroxy-3-methoxybenzylmethylene) dithiocarbazate]] | > 5000 | > 5000 | 6900 ± 3500 | 3300 ± 180 | 3300 ± 320 | 3100 ± 630 | 4700 ± 460 | 4200 ± 340 | 4200 ± 100 | 3300 ± 230 | 3100 ± 550 | 8900 ± 1300 | 3300 ± 150 | 7 | 43.72 | -7.67 |  |
| COc1cccc2c1[O][Sn]([c]1ccccc1)([c]1ccccc1)[S]C(SCc1ccccc1)=NN=C2 [Ph2Sn(SBoVa), Diphenyltin(IV) [S-Benzyl-β-N-(2-hydroxy-3-methoxybenzylmethylene) dithiocarbazate]] | 320 ± 50 | 580 ± 290 | 1200 ± 220 | 1100 ± 390 | 900 ± 160 | 230 ± 30 | 2200 | 1600 ± 70 | 1400 ± 330 | 500 ± 50 | 740 ± 150 | 430 ± 40 | 1300 ± 200 | 12 | 70.72 | -8.29 | 3 |
| COc1cccc2c1[O][Sn]([CH3])([CH3])[S]C(SCc1ccccc1)=NN=C2 [Me2Sn(SBoVa), Dimethyltin(IV) [S-Benzyl-β-N-(2-hydroxy-3-methoxybenzylmethylene) dithiocarbazate]] | 3400 ± 300 | 2400 ± 330 | 2800 ± 150 | 4500 ± 190 | 2500 ± 210 | 3200 ± 30 | 3800 ± 100 | 3200 ± 30 | 3200 ± 130 | 2700 ± 130 | 2100 ± 120 | 5000 ± 90 | 2800 ± 410 | 1 | 53.26 | -8.99 |  |
